Assay results published in patent publication US6605645B2, “Linear polyamine compounds and polyamine-based anti-tumor agents” (Riken, priority 1998, dated 2003).
Like-named read-outs stand apart in the source and are kept apart here.

Columns and labels:
Format in all cases: cell-based
[1] = system: HCC panel comprising 39 cell lines; test: HCC panel in-vitro drug sensitivity test (Sulfo Rhodamine B), anticancer effect on cultured human cancer cell lines; conditions: for Delta / Range: HCC panel log GI50; for Delta: criterion ≧ 0.5; for Range: criterion ≧ 1.0; for evaluation as anticancer agent (criteria A-D: novelty, MG-MID, Delta/Range, COMPARE): HCC panel mean graph evaluation; for GI50: Homo sapiens
Description: The anticancer effect of each compound was determined by using the obtained concentration.
(§1) For the assay of anticancer effect, used was an HCC panel comprising 39 cell lines in total: 7 cell lines of lung cancer (Lu), 6 cell lines of stomach cancer (St), 5 cell lines of colon cancer (Co), 5 cell lines of ovarian cancer (Ov), 6 cell lines of brain tumor (CNS), 5 cell lines of breast cancer (Br), 2 cell lines of renal cancer (Re), 2 cell lines of prostate cancer (xPg) and 1 cell line of melanoma (Me). These were used as one panel, and an in-vitro drug sensitivity test was performed by using the above three compounds to obtain sensitivity patterns against each compound (mean graphs mentioned below). Further, the mean graphs obtained as the results of the above sensitivity test were compared with data in a database.
(§2) Specifically, the drug sensitivity test was performed according to the following procedures. The above 39 cancer cell lines were seeded to a 96-well plate and incubated overnight. On the following day, sample solutions each containing each of the above three compounds (5 doses, usually from 10^-4 M to 10^-8 M with 1 log intervals, the highest concentration is referred to as “High Conc”) were added to the above 96-well plate and cultured for further 2 days. Subsequently, the cell proliferation was calorimetrically determined in the obtained plate by using Sulfo Rhodamine B.
The obtained data of the measurement results are shown as mean graphs. Mean graphs (also referred to as fingerprints) visually expresses effective concentration deviations of a sample substance against individual cancer cell lines so that the sensitivity of each cancer cell line against the sample can be recognized at a glance. The mean graph is also referred to as fingerprint because it represents a pattern unique to each drug.
(§3) In the data analysis, GI50 (concentration at which cell proliferation is inhibited to 50% of a control) is obtained as a parameter for data analysis using the cell number immediately before exposure of cells to the test compound (Time Zero) as a standard. Specifically, the obtained data is used for the following calculation:
(§4) 1) If a mean optical density value at each concentration (OD test) is larger than the OD value at Time Zero (Tz), i.e., OD test >Tz, then percent growth (PG %)=((OD test−Tz)/(OD control−Tz))×100, wherein 1 OD control is the OD value of control. On the contrary, if OD test <Tz, then PG %=((OD test−Tz)/Tz)×100. In this case, PG % is a negative value.
(§5) 2) The above PG % values obtained for each cell line are plotted against concentrations (logarithm) according to the organ cancer type. The concentration at the point where each curve intersects with a horizontal line, provided at PG 50%, corresponds to log GI50.
3) Then, “mean graphs” are created. Mean log GI50 values are obtained for all of the assayed cell lines and referred to as mean graph midpoints (MG-MID). A difference between each of the mean values and the log GI50 value for each cell line is obtained (that is, GI50 for each cell line is represented as a logarithmic value of a multiple or an aliquot of the mean value). The resulting differences are depicted as bar charts extending a left or right side from the center line of mean log GI50 (scale 0) to obtain a mean graph. The higher differential sensitivity a cell line has, the longer the bar extends to the right. One scale corresponds to 1 log. The value of “Delta” provided at the bottom of the mean graph represents the difference between the value for the most sensitive cell line and the mean value. The value of “Range” provided below “Delta” represents the difference between the log GI50 values of the most sensitive cell line and the least sensitive one. […]

[2] = system: lung cancer (Lu) cell lines; test: HCC panel drug sensitivity test, lung cancer lines; conditions: Homo sapiens
Description: as §1, §2, §3, §4, §5

[3] = system: ovarian cancer (Ov) cell lines; test: HCC panel drug sensitivity test, ovarian cancer lines; conditions: Homo sapiens
Description: as §1, §2, §3, §4, §5

[4] = system: brain tumor (CNS) cell lines; test: HCC panel drug sensitivity test, brain tumor lines; conditions: Homo sapiens
Description: as §1, §2, §3, §4, §5

[5] = system: stomach cancer (St) cell lines; test: HCC panel drug sensitivity test, stomach cancer lines; conditions: Homo sapiens
Description: as §1, §2, §3, §4, §5

[6] = system: colon cancer (Co) cell lines; test: HCC panel drug sensitivity test, colon cancer lines; conditions: Homo sapiens
Description: as §1, §2, §3, §4, §5

[7] = system: breast cancer (Br) cell lines; test: HCC panel drug sensitivity test, breast cancer lines; conditions: Homo sapiens
Description: as §1, §2, §3, §4, §5

[8] = system: prostate cancer (xPg) cell lines; test: HCC panel drug sensitivity test, prostate cancer lines; conditions: Homo sapiens; DU-145 (xPg)
Description: as §1
(§6) Specifically, the drug sensitivity test was performed according to the following procedures. The above 39 cancer cell lines were seeded to a 96-well plate and incubated overnight. On the following day, sample solutions each containing each of the above three compounds (5 doses, usually from 10^-4 M to 10^-8 M with 1 log intervals, the highest concentration is referred to as “High Conc”) were added to the above 96-well plate and cultured for further 2 days. Subsequently, the cell proliferation was calorimetrically determined in the obtained plate by using Sulfo Rhodamine B. […]

[9] = system: melanoma (Me) cell line; test: HCC panel drug sensitivity test, melanoma line; conditions: Homo sapiens; LOX-IMVI (Me)
Description: as §1, §6

[10] = 48 h, logarithmic values of molar concentration, for many cancer cell lines of the HCC panel, cultured 2 days, Sulfo Rhodamine B, read-out: log GI50 (concentration at which cell proliferation is inhibited to 50% of the control) (converted)
[11] = mean over HCC panel, criterion <−5, read-out: MG-MID (log GI50) (converted)
[12] = DMS-114, DMS114 (Lu), read-out: log GI50 (converted)
[13] = DMS-273, DMS273 (Lu), read-out: log GI50 (converted)
[14] = A549 (Lu), read-out: log GI50 (converted)
[15] = NCI-H23 (Lu), read-out: log GI50 (converted)
[16] = NCI-H226 (Lu), read-out: log GI50 (converted)
[17] = NCI-H460 (Lu), read-out: log GI50 (converted)
[18] = NCI-H522 (Lu), read-out: log GI50 (converted)
[19] = OVCAR-3 (Ov), read-out: log GI50 (converted)
[20] = OVCAR-4 (Ov), read-out: log GI50 (converted)
[21] = OVCAR-5 (Ov), read-out: log GI50 (converted)
[22] = OVCAR-8 (Ov), read-out: log GI50 (converted)
[23] = SF-268 (CNS), read-out: log GI50 (converted)
[24] = SF-539 (CNS), read-out: log GI50 (converted)
[25] = SNB-75 (CNS), read-out: log GI50 (converted)

`CCNCCCCNCCCCCCCCNCCCCNCC` [BET484, 1,18-bis(ethylamino)-5,14-diazaoctadecane] was tested, and the Delta [1] was 1.45, the Range [1] was 1.62 and the “evaluation as anticancer agent (criteria A-D: novelty, MG-MID, Delta/Range, COMPARE)” value [1] was “the most interesting”. The GI50 ([1]; 48 h, read-out: log GI50 (concentration at which cell proliferation is inhibited to 50% of the control) (converted)) was < 100 µM, the GI50 ([1]; read-out: MG-MID (log GI50) (converted)) was 67.6 µM and the GI50 ([2]; A549, read-out: log GI50 (converted)) was 16.2 µM. It also gave a GI50 ([2]; DMS-273, read-out: log GI50 (converted)) of 3.02 µM, a GI50 ([3]; OVCAR-3, read-out: log GI50 (converted)) of 20 µM and a GI50 ([3]; OVCAR-4, read-out: log GI50 (converted)) of 5.89 µM. It also gave a GI50 ([3]; OVCAR-5, read-out: log GI50 (converted)) of 72.4 µM, a GI50 ([4]; read-out: log GI50, SF-539 (CNS) (converted)) of 7.94 µM and a GI50 ([4]; read-out: log GI50, SNB-75 (CNS) (converted)) of 12.9 µM.

With `C(CCCNCCCCNCC1CC1)CCCNCCCCNCC1CC1` [BCPM474] the Delta [1] was 0.84, the Range [1] was 1.76 and the “evaluation as anticancer agent (criteria A-D: novelty, MG-MID, Delta/Range, COMPARE)” value [1] was “the most interesting”. The GI50 [1, 10] was < 100 µM, the GI50 [1, 11] was 11.5 µM and the GI50 [2, 12] was 3.8 µM. It also gave a GI50 [2, 13] of 4.17 µM, a GI50 [2, 14] of 2.82 µM and a GI50 [2, 15] of 4.37 µM. The GI50 [2, 16] was 9.12 µM, the GI50 [2, 17] was 16.6 µM and the GI50 [2, 18] was 3.24 µM. For the same compound, the GI50 ([5]; MKN-1, MKN1 (St)) was 12 µM, the GI50 ([5]; MKN-7, MKN7 (St)) was 4.37 µM and the GI50 ([5]; MKN-28, MKN28 (St)) was 5.25 µM. The GI50 ([5]; MKN-45, MKN45 (St)) was 12 µM, the GI50 ([5]; MKN-74, MKN74 (St)) was 47.9 µM and the GI50 ([5]; St-4 (St)) was 6.92 µM. The GI50 ([6]; HCC 2998, HCC2998 (Co)) was 10.2 µM, the GI50 ([6]; KM12, KM-12 (Co)) was 28.2 µM and the GI50 ([6]; HCT-15 (Co)) was 37.2 µM. It also gave a GI50 ([6]; HCT-116 (Co)) of 6.92 µM, a GI50 ([6]; HT-29 (Co)) of 8.71 µM and a GI50 [3, 19] of 1.66 µM. For the same compound, the GI50 [3, 20] was 4.17 µM, the GI50 [3, 21] was 5.37 µM and the GI50 [3, 22] was 2.75 µM. It also gave a GI50 ([3]; SK-OV-3 (Ov), read-out: log GI50 (converted)) of 5.75 µM, a GI50 [4, 23] of 4.68 µM and a GI50 ([4]; SF-295 (CNS), read-out: log GI50 (converted)) of 8.71 µM. It also gave a GI50 [4, 24] of 3.47 µM, a GI50 [4, 25] of 3.63 µM and a GI50 ([7]; HBC4, HBC-4 (Br)) of 4.57 µM. For the same compound, the GI50 ([7]; HBC5, HBC-5 (Br)) was 2.24 µM, the GI50 ([7]; MCF7, MCF-7 (Br)) was 56.2 µM and the GI50 ([7]; BSY-1 (Br)) was 7.08 µM. It also gave a GI50 [8] of 67.6 µM and a GI50 [9] of 30.9 µM.

With `C(CCCNCCCCNCC1CC1)CCNCCCCNCC1CC1` [BCPM464, 1,16-bis(cyclopropylmethylamino)-5,12-diazahexadecane] the Delta [1] was 1.19, the Range [1] was 2.05 and the “evaluation as anticancer agent (criteria A-D: novelty, MG-MID, Delta/Range, COMPARE)” value [1] was “the most interesting”. The GI50 [1, 10] was < 100 µM, the GI50 [1, 11] was 13.8 µM and the GI50 [2, 12] was 4.37 µM. It also gave a GI50 [2, 13] of 4.37 µM, a GI50 [2, 14] of 2.82 µM and a GI50 [2, 15] of 3.55 µM. It also gave a GI50 [2, 16] of 7.24 µM, a GI50 [2, 17] of 9.77 µM and a GI50 [2, 18] of 1.82 µM. It also gave a GI50 ([5]; MKN-1, MKN1 (St)) of 7.24 µM, a GI50 ([5]; MKN-7, MKN7 (St)) of 4.17 µM and a GI50 ([5]; MKN-28, MKN28 (St)) of 4.68 µM. It also gave a GI50 ([5]; MKN-45, MKN45 (St)) of 6.46 µM, a GI50 ([5]; St-4 (St)) of 6.46 µM and a GI50 ([6]; HCC 2998, HCC2998 (Co)) of 63.1 µM. For the same compound, the GI50 ([6]; HCT-116 (Co)) was 6.76 µM, the GI50 ([6]; HT-29 (Co)) was 23.4 µM and the GI50 [3, 19] was 3.02 µM. For the same compound, the GI50 [3, 20] was 2.88 µM, the GI50 [3, 21] was 4.37 µM and the GI50 [3, 22] was 5.75 µM. For the same compound, the GI50 [4, 23] was 87.1 µM, the GI50 [4, 24] was 3.16 µM and the GI50 [4, 25] was 3.31 µM. For the same compound, the GI50 ([4]; U251 (CNS), read-out: log GI50 (converted)) was 60.3 µM, the GI50 ([7]; HBC4, HBC-4 (Br)) was 6.92 µM and the GI50 ([7]; HBC5, HBC-5 (Br)) was 0.891 µM. The GI50 ([7]; MCF7, MCF-7 (Br)) was 13.8 µM, the GI50 ([7]; BSY-1 (Br)) was 3.55 µM and the GI50 [9] was 6.31 µM.
